According to ChEMBL document CHEMBL4649994:
Values joined by “and” are separate entries in the source; they are usually repeats but may differ in a detail not shown here. Identical values can stand only once.

Key:
Conditions in all cases: Compound concentration 10.0 uM, Protein concentration 2.0 uM
[1] = target: Transcription initiation factor TFIID subunit 1 (Homo sapiens) (UniProt P21675)
[2] = target: PH-interacting protein (Homo sapiens) (UniProt Q8WWQ0)
[3] = target: SWI/SNF-related matrix-associated actin-dependent regulator of chromatin subfamily A member 2 (Homo sapiens) (UniProt P51531)
[4] = target: Transcription initiation factor TFIID subunit 1-like (Homo sapiens) (UniProt Q8IZX4)
[5] = target: Protein polybromo-1 (Homo sapiens) (UniProt Q86U86); test: Thermal Shift Assay. Domain start/stop: H23-D159
Protein polybromo-1 (Homo sapiens), sequence (Q86U86 whole entry, the tested form may be a part): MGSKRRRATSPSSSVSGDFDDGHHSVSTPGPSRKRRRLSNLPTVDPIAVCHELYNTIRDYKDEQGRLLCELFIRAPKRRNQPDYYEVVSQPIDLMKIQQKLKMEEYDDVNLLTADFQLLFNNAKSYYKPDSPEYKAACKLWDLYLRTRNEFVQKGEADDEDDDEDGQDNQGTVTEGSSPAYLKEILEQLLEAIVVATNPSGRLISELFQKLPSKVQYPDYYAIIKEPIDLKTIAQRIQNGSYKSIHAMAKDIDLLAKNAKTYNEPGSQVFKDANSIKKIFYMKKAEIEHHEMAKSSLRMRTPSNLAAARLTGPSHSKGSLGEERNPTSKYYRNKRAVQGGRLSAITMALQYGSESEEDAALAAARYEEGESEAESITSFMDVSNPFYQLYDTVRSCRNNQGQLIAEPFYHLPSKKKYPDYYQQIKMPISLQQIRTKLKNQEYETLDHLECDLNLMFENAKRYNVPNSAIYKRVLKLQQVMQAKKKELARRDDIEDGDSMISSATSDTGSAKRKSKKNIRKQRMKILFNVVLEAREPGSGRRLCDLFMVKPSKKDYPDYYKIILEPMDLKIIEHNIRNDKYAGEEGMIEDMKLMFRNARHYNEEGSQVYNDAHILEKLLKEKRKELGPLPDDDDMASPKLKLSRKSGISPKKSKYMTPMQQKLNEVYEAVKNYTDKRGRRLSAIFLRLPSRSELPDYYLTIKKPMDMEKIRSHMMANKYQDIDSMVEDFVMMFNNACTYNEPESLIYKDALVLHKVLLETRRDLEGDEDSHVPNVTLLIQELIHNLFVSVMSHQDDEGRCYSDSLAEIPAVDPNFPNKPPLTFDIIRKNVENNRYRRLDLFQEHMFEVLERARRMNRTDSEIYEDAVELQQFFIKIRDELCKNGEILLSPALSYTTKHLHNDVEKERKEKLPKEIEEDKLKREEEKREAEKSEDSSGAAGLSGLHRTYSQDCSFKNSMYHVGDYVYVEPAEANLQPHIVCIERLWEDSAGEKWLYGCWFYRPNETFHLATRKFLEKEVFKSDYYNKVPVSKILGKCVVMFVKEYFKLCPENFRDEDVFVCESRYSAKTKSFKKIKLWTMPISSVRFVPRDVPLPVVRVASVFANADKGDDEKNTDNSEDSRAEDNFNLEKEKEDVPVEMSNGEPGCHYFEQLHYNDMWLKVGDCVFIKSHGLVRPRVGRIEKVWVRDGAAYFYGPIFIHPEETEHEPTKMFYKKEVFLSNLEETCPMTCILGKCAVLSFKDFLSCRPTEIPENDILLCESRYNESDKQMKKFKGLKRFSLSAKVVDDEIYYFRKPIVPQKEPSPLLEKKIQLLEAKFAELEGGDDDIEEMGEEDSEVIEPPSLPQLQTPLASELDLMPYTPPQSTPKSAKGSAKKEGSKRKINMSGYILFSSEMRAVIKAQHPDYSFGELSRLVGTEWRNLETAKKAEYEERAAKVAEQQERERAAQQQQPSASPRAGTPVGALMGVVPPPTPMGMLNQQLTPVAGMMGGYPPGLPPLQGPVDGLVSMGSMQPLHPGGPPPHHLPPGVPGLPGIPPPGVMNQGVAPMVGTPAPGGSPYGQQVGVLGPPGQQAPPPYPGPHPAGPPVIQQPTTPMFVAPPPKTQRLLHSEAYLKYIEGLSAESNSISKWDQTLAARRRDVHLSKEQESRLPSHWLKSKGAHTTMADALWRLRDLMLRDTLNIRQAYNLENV

[6] = target: ATPase family AAA domain-containing protein 2B (Homo sapiens) (UniProt Q9ULI0)
[7] = target: Protein polybromo-1 (Homo sapiens) (UniProt Q86U86)
[8] = target: Nuclear body protein SP140-like protein (Homo sapiens) (UniProt Q9H930)
[9] = target: Protein polybromo-1 (Homo sapiens) (UniProt Q86U86); remark: listed apart in the source
[10] = target: Nucleosome-remodeling factor subunit BPTF (Homo sapiens) (UniProt Q12830)
[11] = target: Histone acetyltransferase p300 (Homo sapiens) (UniProt Q09472)
[12] = target: Nuclear body protein SP140 (Homo sapiens) (UniProt Q13342)
[13] = target: Bromodomain adjacent to zinc finger domain protein 1A (Homo sapiens) (UniProt Q9NRL2)
[14] = target: Protein polybromo-1 (Homo sapiens) (UniProt Q86U86); test: Thermal Shift Assay. Domain start/stop: R487-D598
[15] = target: Transcription initiation factor TFIID subunit 1-like (Homo sapiens) (UniProt Q8IZX4); remark: listed apart in the source
[16] = target: Histone-lysine N-methyltransferase ASH1L (Homo sapiens) (UniProt Q9NR48)
[17] = target: Transcription intermediary factor 1-beta (Homo sapiens) (UniProt Q13263)
[18] = target: Bromodomain and PHD finger-containing protein 3 (Homo sapiens) (UniProt Q9ULD4)
[19] = target: Chromatin remodeling regulator CECR2 (Homo sapiens) (UniProt Q9BXF3)
[20] = target: Histone acetyltransferase KAT2B (Homo sapiens) (UniProt Q92831)
Histone acetyltransferase KAT2B (Homo sapiens), sequence (Q92831 whole entry, looked up): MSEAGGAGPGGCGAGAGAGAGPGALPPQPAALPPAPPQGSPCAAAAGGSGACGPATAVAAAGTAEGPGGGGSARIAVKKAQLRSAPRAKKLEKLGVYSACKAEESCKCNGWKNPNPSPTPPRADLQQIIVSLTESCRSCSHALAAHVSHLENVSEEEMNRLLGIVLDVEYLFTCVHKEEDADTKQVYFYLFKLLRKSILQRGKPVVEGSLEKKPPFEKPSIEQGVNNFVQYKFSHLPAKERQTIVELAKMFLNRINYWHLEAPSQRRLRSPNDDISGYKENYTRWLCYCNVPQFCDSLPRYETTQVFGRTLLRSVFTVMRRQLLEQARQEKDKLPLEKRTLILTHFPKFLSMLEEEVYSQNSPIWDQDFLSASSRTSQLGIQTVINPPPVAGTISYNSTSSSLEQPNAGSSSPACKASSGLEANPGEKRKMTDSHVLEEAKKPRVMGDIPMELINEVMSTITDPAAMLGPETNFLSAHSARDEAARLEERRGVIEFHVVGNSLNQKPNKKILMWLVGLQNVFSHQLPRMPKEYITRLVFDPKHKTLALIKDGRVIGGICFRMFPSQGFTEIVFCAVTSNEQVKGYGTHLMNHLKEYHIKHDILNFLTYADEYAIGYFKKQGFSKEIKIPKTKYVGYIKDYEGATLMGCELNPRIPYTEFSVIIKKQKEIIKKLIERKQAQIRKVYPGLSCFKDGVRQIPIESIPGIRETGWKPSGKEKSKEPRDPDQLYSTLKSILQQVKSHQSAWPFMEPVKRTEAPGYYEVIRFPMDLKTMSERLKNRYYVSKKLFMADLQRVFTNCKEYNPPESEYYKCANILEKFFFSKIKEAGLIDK

[21] = target: Protein polybromo-1 (Homo sapiens) (UniProt Q86U86); remark: listed apart in the source
[22] = target: Peregrin (Homo sapiens) (UniProt P55201)
[23] = target: Peregrin (Homo sapiens) (UniProt P55201); remark: listed apart in the source
[24] = target: Bromodomain adjacent to zinc finger domain protein 2B (Homo sapiens) (UniProt Q9UIF8)
[25] = target: Transcription initiation factor TFIID subunit 1 (Homo sapiens) (UniProt P21675); remark: listed apart in the source
[26] = target: ATPase family AAA domain-containing protein 2 (Homo sapiens) (UniProt Q6PL18)
[27] = target: Bromodomain-containing protein 3 (Homo sapiens) (UniProt Q15059); test: Thermal Shift Assay. Domain start/stop: P24-E144
Bromodomain-containing protein 3 (Homo sapiens), sequence (Q15059 2-726 limits assumed): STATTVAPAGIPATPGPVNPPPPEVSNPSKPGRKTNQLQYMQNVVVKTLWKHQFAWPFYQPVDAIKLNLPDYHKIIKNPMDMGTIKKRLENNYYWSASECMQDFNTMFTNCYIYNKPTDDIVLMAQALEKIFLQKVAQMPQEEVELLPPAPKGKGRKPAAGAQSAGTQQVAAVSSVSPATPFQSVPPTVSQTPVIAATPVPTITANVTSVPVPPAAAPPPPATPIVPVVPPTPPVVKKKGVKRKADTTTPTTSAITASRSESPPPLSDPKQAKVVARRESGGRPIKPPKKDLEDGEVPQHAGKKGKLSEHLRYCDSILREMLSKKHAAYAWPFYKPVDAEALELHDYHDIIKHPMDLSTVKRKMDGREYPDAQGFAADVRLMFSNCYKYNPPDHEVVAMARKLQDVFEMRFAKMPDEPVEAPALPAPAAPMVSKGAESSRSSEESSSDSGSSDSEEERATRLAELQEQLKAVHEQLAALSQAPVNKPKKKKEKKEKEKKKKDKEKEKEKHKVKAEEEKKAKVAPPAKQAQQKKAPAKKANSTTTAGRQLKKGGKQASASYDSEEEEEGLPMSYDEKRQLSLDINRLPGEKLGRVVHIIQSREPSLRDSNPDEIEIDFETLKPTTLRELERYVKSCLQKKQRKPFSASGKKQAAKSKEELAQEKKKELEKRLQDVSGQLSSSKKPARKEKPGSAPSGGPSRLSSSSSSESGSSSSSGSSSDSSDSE

[28] = target: Bromodomain adjacent to zinc finger domain protein 2A (Homo sapiens) (UniProt Q9UIF9)
[29] = target: Protein polybromo-1 (Homo sapiens) (UniProt Q86U86); remark: listed apart in the source
[30] = target: Bromodomain and WD repeat-containing protein 3 (Homo sapiens) (UniProt Q6RI45)
[31] = target: Bromodomain-containing protein 2 (Homo sapiens) (UniProt P25440)
Bromodomain-containing protein 2 (Homo sapiens), sequence (P25440 whole entry, looked up): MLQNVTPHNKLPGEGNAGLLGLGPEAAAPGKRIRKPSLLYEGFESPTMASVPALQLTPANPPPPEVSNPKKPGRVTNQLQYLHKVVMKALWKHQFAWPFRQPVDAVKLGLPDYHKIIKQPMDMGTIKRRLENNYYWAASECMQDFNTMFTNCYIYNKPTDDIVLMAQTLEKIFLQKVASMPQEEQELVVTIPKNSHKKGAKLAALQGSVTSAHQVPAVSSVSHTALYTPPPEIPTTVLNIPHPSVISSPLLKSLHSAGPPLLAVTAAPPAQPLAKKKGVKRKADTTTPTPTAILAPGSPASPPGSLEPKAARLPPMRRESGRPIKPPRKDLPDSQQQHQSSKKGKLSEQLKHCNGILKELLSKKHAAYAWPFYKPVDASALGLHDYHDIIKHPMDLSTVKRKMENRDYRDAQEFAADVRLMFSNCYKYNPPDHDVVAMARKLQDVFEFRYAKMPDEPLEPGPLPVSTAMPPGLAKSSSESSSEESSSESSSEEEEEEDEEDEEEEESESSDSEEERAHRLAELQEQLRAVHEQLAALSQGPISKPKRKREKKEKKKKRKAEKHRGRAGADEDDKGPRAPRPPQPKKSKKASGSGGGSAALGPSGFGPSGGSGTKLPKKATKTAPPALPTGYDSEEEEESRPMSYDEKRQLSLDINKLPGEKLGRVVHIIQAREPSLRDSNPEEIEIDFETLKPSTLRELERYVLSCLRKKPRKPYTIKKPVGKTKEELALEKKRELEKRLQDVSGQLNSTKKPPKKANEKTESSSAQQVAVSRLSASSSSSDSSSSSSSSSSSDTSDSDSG

[32] = target: Bromodomain-containing protein 2 (Homo sapiens) (UniProt P25440); remark: listed apart in the source
[33] = target: Tripartite motif-containing protein 66 (Homo sapiens) (UniProt O15016); test: Thermal Shift Assay. Domain start/stop: M1091-S1218
[34] = target: Transcription intermediary factor 1-alpha (Homo sapiens) (UniProt O15164)
[35] = target: Bromodomain testis-specific protein (Homo sapiens) (UniProt Q58F21)
[36] = target: Bromodomain-containing protein 1 (Homo sapiens) (UniProt O95696)
Bromodomain-containing protein 1 (Homo sapiens), sequence (O95696 whole entry): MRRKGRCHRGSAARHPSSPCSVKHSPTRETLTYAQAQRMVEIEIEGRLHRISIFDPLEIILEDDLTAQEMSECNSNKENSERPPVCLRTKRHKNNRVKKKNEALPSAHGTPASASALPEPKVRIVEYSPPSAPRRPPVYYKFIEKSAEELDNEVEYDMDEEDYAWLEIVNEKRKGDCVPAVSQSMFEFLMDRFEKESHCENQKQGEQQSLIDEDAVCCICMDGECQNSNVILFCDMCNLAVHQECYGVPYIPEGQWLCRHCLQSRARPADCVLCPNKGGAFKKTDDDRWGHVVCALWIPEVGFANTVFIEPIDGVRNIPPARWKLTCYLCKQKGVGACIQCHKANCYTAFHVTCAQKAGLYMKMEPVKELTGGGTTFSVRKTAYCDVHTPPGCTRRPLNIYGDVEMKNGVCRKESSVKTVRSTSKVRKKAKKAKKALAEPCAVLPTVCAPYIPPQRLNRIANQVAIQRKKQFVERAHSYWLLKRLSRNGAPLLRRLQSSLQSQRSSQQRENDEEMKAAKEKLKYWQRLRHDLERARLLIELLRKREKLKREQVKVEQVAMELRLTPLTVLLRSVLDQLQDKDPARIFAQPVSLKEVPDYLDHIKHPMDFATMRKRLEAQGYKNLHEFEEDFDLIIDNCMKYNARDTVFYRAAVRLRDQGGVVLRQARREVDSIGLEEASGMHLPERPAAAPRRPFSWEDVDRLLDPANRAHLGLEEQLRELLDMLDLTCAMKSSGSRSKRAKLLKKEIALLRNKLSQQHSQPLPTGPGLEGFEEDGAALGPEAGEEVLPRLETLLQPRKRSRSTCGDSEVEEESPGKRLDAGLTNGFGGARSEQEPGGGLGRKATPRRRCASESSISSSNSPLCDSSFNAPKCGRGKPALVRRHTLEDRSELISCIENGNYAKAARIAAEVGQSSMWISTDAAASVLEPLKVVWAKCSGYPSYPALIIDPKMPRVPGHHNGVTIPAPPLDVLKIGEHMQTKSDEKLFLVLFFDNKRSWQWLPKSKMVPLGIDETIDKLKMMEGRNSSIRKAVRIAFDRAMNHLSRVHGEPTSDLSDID

[37] = target: Bromodomain-containing protein 3 (Homo sapiens) (UniProt Q15059)
[38] = target: Bromodomain-containing protein 9 (Homo sapiens) (UniProt Q9H8M2)
[39] = target: CREB-binding protein (Homo sapiens) (UniProt Q92793)
[40] = target: Histone acetyltransferase KAT2A (Homo sapiens) (UniProt Q92830)
[41] = target: SWI/SNF-related matrix-associated actin-dependent regulator of chromatin subfamily A member 4 (Homo sapiens) (UniProt P51532)

COc1ccccc1S(=O)(=O)Nc1ccc2c(c1)CN(C)C(=O)N2
ΔTm [1]: -0.08 °C | ΔTm [2]: 1.07 °C | ΔTm [3]: 0.49 °C | ΔTm [4]: 0.52 °C | ΔTm [5]: 0.75 °C | ΔTm [6]: 0.1 °C | ΔTm [7]: -0.18 °C | ΔTm [8]: 0.12 °C | ΔTm [9]: 0.99 °C | ΔTm [10]: 0.44 °C | ΔTm [11]: 2.71 °C | ΔTm [12]: 0.1 °C | ΔTm [13]: 1.62 °C | ΔTm [14]: 1.03 °C | ΔTm [15]: 0.78 °C | ΔTm [16]: -0.34 °C | ΔTm [17]: 0.29 °C | ΔTm [18]: 1.72 °C | ΔTm [19]: -0.22 °C | ΔTm [20]: -0.1 °C and 0.81 °C | ΔTm [21]: 0.62 °C | ΔTm [22]: 0.68 °C | ΔTm [23]: 2.42 °C | ΔTm [24]: 0.66 °C and 0.25 °C | ΔTm [25]: 0.62 °C | ΔTm [26]: 0.71 °C | ΔTm [27]: 3.99 °C and 5.24 °C | ΔTm [28]: 1.02 °C | ΔTm [29]: 0.83 °C and -0.18 °C | ΔTm [30]: 0.16 °C | ΔTm [31]: 5.32 °C | ΔTm [32]: 4.61 °C and 3.1 °C | ΔTm [33]: 0.42 °C | ΔTm [34]: 0.57 °C | ΔTm [35]: 2.08 °C | ΔTm [36]: 1.19 °C and 0.62 °C | ΔTm [37]: 4.59 °C and 5.45 °C | ΔTm [38]: 1.96 °C | ΔTm [39]: 2.09 °C and 2.66 °C | ΔTm [40]: 0.43 °C | ΔTm [41]: 0.51 °C
